According to patent publication US20220289657A1, “COMPOSITION FOR PREVENTING OR TREATING BACTERIAL INFECTIOUS DISEASE COMPRISING 4-GINGEROL DERIVATIVE COMPOUND AS ACTIVE INGREDIENT” (KOREA UNIVERSITY RESEARCH AND BUSINESS FOUNDATION, SEJONG …, priority 2019, published 2022):
Read-outs that look alike come from different tables or passages of the source. Marks after values point to notes of the source that are not given here.

Experiments:
RhlR = molecular target: T1, RhlR (Pseudomonas aeruginosa, UniProt P54292); test: cell-based; details: for Relative RhlR activity Antagonism: Table 2; for Relative RhIR activity (%) Agonism / Relative RhIR activity (%) Antagonism: Table 4, concentration not given; for activity at 100 µM: read-out: Relative RhlR activity Agonism, Table 2, matches the 100 column of Table 3; for Relative RhIR Activity (%) Agonism 100 / Relative RhIR Activity (%) Agonism 1000: Table 3; for Relative RhIR Activity (%) Agonism 1000: 1000 (μM); for remaining activity at 10 µM: read-out: Relative RhIR Activity (%) Antagonism 10, Table 3
T1 construct: expressed in transfected cells; host or cells: E. coli sdiA variant co-transformed with pJN105R and pSC11 (RhlA::lacZ)
T1 sequence (P54292 whole entry): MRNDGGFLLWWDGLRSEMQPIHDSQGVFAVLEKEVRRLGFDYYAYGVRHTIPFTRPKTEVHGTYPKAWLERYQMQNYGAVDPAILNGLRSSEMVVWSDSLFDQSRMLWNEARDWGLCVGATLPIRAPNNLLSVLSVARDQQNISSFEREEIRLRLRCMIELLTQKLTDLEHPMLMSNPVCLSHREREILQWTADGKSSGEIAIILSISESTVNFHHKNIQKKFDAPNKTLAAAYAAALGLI
Description: Escherichia coli (E. coli) DH5a includes LuxR homolog SdiA detecting endogenous AHL synthesized by other microbial species, particularly, BHL.
For RhlR reporter strain analysis, the present invention used pJN105R (RhlR expression plasmid), anspSC11 (RhlA::lacZ fusion plasmid) and an sdiA variant co-transformed with the two plasmids. 1% of an overnight-cultured reporter strain (OD 595 nm=1.0) supplemented with 10 μg/mL gentamicin and 50 μg/mL ampicillin was cultured in a Luria-Bertani (LB) medium (Difco, Detroit, Mich., USA) with a positive control or a compound (0-1000 μM) and BHL (0-10 μM) (Sigma-Aldrich) at 37° C. for 2 hours. 0.4% arabinose (Sigma-Aldrich) was reacted with the resulting product at 37° C. for 1.5 hours. β-galactosidase activity was evaluated using a Tropix plus kit (Applied Biosystems, CA, USA), and OD 595 nm and luminescence were measured using a VICTOR x5 multimode plate reader (PerkinElmer, Waltham, Mass., USA). Relative RhlR activity was quantified by measuring luminescence at OD 595 nm. In addition, for LasR reporter strain analysis, the present invention used pJN105L (LasR expression plasmid) and pSC11 (lasI::lacZ fusion plasmid), E. coli DH5a co-transformed with the two plasmids, and OdDHL (Sigma-Aldrich).

Pseudomonas aeruginosa [1] = test: Static biofilm formation assay (crystal violet); assay type: cell-based; details: for Relative biological activity (%) Biofilm formation: Table 4, concentration not given; for activity at 10 µM / activity at 100 µM: Pseudomonas aeruginosa, 24 h, Table 3, static; for activity at 10 µM: read-out: Relative biological activity (%) Biofilm formation 10; for activity at 100 µM: read-out: Relative biological activity (%) Biofilm formation 100
Description: (§1) Pseudomonas aeruginosa (P. aeruginosa) (OD 595 nm=1.0) was cultured overnight, and diluted in an AB medium (1:20; 300 mM NaCl, 50 mM MgSO4, 0.2% vitamin-free casamino acids, 10 mM potassium phosphate, 1 mM L-arginine, and 1% glucose, pH 7.5) together with a positive control or compound (0100 μM) in a borosilicate bottle. The resulting mixture was incubated without shaking at 37° C. for 24 hours, and to measure growth inhibition activity. OD 595 nm of the suspended culture was measured using a multimode plate reader. Biofilm cells attached to the bottle were washed twice with phosphate-buffered saline (PBS; 137 mM NaCl, 2.7 mM KCl, 10 mM Na2HPO4, and 2 mM KH2PO4, pH 7.2). Afterward, the remaining biofilm cells were stained with 0.1% crystal violet for 10 minutes, and to remove the unbound crystal violet, washed with deionized water. The crystal violet […] to the biofilm cells was eluted with 100% ethanol, and the OD of the eluted ethanol sample was measured at 545 nm using a multimode plate reader.

P. aeruginosa = test: Rhamnolipid production assay; assay type: cell-based, Pseudomonas aeruginosa; details: for Relative biological activity (%) Rhamnolipid production: Table 4, concentration not given; for activity at 100 µM / activity at 10 µM: Pseudomonas aeruginosa, 24 h, Table 3; for activity at 100 µM: read-out: Relative biological activity (%) Rhamnolipid production 100; for activity at 10 µM: read-out: Relative biological activity (%) Rhamnolipid production 10
Description: P. aeruginosa (OD 595 nm=1.0) cultured overnight was inoculated in an AB medium (1:100) with a positive control or compound (0100 μM), and incubated using a shaking culture for 24 hours at 37° C. The cell culture was centrifuged for 5 minutes at 4° C. and 12,000 g. Rhamnolipids were extracted twice by mixing 200 μL of a supernatant and 400 μL of 100% diethyl ether (JUNSEI, Tokyo, Japan). The supernatant was transferred to a new tube and evaporated. A dried sample was eluted with 20 μL of deionized water, and reacted with 180 μL of an Orcinal solution (0.19% Orcinal (Sigma-Aldrich) in 53% H2SO4). The reaction mixture was heated for 30 minutes at 80° C., and cooled for 15 minutes at room temperature. The amount of rhamnolipids was measured at OD 421 nm, and normalized in the cell culture solution at OD 595 nm using a multimode plate reader.

Pseudomonas aeruginosa [2] = test: Bacterial growth under static condition (OD 595 nm of suspended culture); assay type: cell-based; details: for Relative biological activity (%) Bacterial growth: Table 4, concentration not given; for activity at 10 µM / activity at 100 µM: Pseudomonas aeruginosa, 24 h, Table 3; for activity at 10 µM: read-out: Relative biological activity (%) Bacterial growth 10; for activity at 100 µM: read-out: Relative biological activity (%) Bacterial growth 100
Description: as §1

[3] = footnotes not given, 100 μM per Table 3, lower = stronger antagonism
[4] = read-out: Relative RhlR activity Antagonism, Table 2, footnotes not given, 100 μM per Table 3, lower = stronger antagonism
[5] = read-out: Relative RhIR Activity (%) Antagonism 100, Table 3, 100 (μM)

Structure (SMILES) | Relative RhlR activity Antagonism (RhlR; [3]) | Relative RhIR activity (%) Agonism (RhlR) | activity at 100 µM (RhlR; footnotes not given) | remaining activity at 100 µM (RhlR; [4]) | Relative biological activity (%) Biofilm formation (Pseudomonas aeruginosa [1]) | Relative biological activity (%) Rhamnolipid production (P. aeruginosa) | Relative biological activity (%) Bacterial growth (Pseudomonas aeruginosa [2]) | other results
CCCCCC(O)C#Cc1ccc(O)c(OC)c1 (racemic) [Compound 23a, 4-(3-Hydroxyoct-1-yn-1-yl)-2-methoxyphenol] | 32** % | 3** % | 3% | 32% | 80* % | 85% | 98% | Relative RhIR activity (%) Antagonism (RhlR): 32** %
CCCC(O)C#Cc1ccc(F)c(F)c1 (racemic) [Compound 33a, 1-(3,4-Difluorophenyl)hex-1-yn-3-ol] |  |  | 3% | 32% |  |  |  | Relative RhIR Activity (%) Agonism 100 (RhlR; 100 (μM)): 3** %; Relative RhIR Activity (%) Agonism 1000 (RhlR): 5** %; remaining activity at 10 µM (RhlR): 45%; remaining activity at 100 µM (RhlR; [5]): 32%; activity at 10 µM (Pseudomonas aeruginosa [1]): 73%; activity at 100 µM (Pseudomonas aeruginosa [1]): 60%; activity at 100 µM (P. aeruginosa): 49%; activity at 10 µM (Pseudomonas aeruginosa [2]): 100%; activity at 100 µM (Pseudomonas aeruginosa [2]): 104%
CCCCCCCCC(O)CC(=O)CCc1ccc(O)c(OC)c1 (stereo not drawn) [Compound 7, 5-Hydroxy-1-(4-hydroxy-3-methoxyphenyl)tridecan-3-one] |  | 2** % | 2% | 41% | 79** % | 69* % | 89% | Relative RhIR activity (%) Antagonism (RhlR): 41** %
CCCCCCCCCC(O)CC(=O)CCc1ccc(O)c(OC)c1 (stereo not drawn) [Compound 8, 5-Hydroxy-1-(4-hydroxy-3-methoxyphenyl)tetradecan-3-one] |  | 2** % | 2% | 36% | 80** % | 60* % | 80** % | Relative RhIR activity (%) Antagonism (RhlR): 36** %
CCCC(O)CC(=O)/C=C/c1ccc(O)c(OC)c1 (stereo not drawn) [Compound 11a, (E)-5-Hydroxy-1-(4-hydroxy-3-methoxyphenyl)oct-1-en-3-one] | 65** % | 4** % | 4% | 65% | 81* % | 67* % | 101% | Relative RhIR Activity (%) Agonism 100 (RhlR; 100 (μM)): 4** %; Relative RhIR Activity (%) Agonism 1000 (RhlR): 5** %; remaining activity at 10 µM (RhlR): 73%; remaining activity at 100 µM (RhlR; [5]): 65%; activity at 10 µM (Pseudomonas aeruginosa [1]): 82%; activity at 100 µM (Pseudomonas aeruginosa [1]): 65%; activity at 10 µM (P. aeruginosa): 73%; activity at 100 µM (P. aeruginosa): 57%; activity at 10 µM (Pseudomonas aeruginosa [2]): 102%; activity at 100 µM (Pseudomonas aeruginosa [2]): 95%
CCCC(O)CC(=O)/C=C/c1cccc(OC)c1 (stereo not drawn) [Compound 11c, (E)-5-Hydroxy-1-(3-methoxyphenyl)oct-1-en-3-one] |  | 2** % | 2% | 94% | 82* % | 95% | 101% | Relative RhIR Activity (%) Agonism 100 (RhlR; 100 (μM)): 2** %; Relative RhIR Activity (%) Agonism 1000 (RhlR): 4** %; remaining activity at 10 µM (RhlR): 89%; remaining activity at 100 µM (RhlR; [5]): 94%; activity at 10 µM (Pseudomonas aeruginosa [1]): 88%; activity at 100 µM (Pseudomonas aeruginosa [1]): 73%; activity at 10 µM (P. aeruginosa): 91%; activity at 100 µM (P. aeruginosa): 83%; activity at 10 µM (Pseudomonas aeruginosa [2]): 96%; activity at 100 µM (Pseudomonas aeruginosa [2]): 95%
CCCCCC(=O)CCc1ccc(O)c(OC)c1 [Compound 14b, 1-(4-Hydroxy-3-methoxyphenyl)octan-3-one] | 49** % |  | 2% | 49% |  |  |  | 
CCCCCC(O)/C=C/c1ccc(F)c(F)c1 (stereo not drawn) [Compound 15a, (E)-1-(3,4-Difluorophenyl)oct-1-en-3-ol] |  |  | 5% | 55% |  |  |  | 
CCCCCC(O)/C=C/c1ccc(O)c(OC)c1 (stereo not drawn) [Compound 15b, (E)-4-(3-Hydroxyoct-1-en-1-yl)-2-methoxyphenol] | 41** % |  | 2% | 41% |  |  |  | 
CCCCCC(O)CCc1ccc(F)c(F)c1 (stereo not drawn) [Compound 16a, 1-(3,4-Difluorophenyl)octan-3-ol] |  |  | 5% | 61% |  |  |  | 
CCCCCC(O)/C=C\c1ccc(O)c(OC)c1 (stereo not drawn) [Compound 25, (Z)-4-(3-Hydroxyoct-1-en-1-yl)-2-methoxyphenol] | 79** % |  | 3% | 79% |  |  |  | 
CCCCCC(O)CCc1ccc(O)c(OC)c1 (stereo not drawn) [Compound 27] | 45** % |  | 2% | 45% |  |  |  | 
CCCC[C@@H](O)C#Cc1ccc(F)c(F)c1 [Compound 34b, (R)-1-(3,4-Difluorophenyl)hept-1-yn-3-ol] |  |  | 3% | 67% |  |  |  | 
CCCC[C@H](O)C#Cc1ccc(F)c(F)c1 [Compound 34c, (S)-1-(3,4-Difluorophenyl)hept-1-yn-3-ol] |  |  | 2% | 64% |  |  |  | 
CCCCC[C@@H](O)C#Cc1ccc(F)c(F)c1 [Compound 35b, (R)-1-(3,4-Difluorophenyl)oct-1-yn-3-ol] |  |  | 3% | 72% |  |  |  | 
CCCCC[C@H](O)C#Cc1ccc(F)c(F)c1 [Compound 35c, (S)-1-(3,4-Difluorophenyl)oct-1-yn-3-ol] |  |  | 4% | 67% |  |  |  | 
